Measurements taken from patent publication US20150119395A1, “NOVEL TRIAZOLE COMPOUNDS THAT MODULATE HSP90 ACTIVITY” (SYNTA PHARMACEUTICALS CORP., priority 2012, published 2015).

system: Her2; test: Degradation of Her2 in BT-474 cells, SDS-PAGE/immunoblot, Method 1; type: cell-based, human; settings: 0.5 μM, overnight in DMEM medium
Protocol: BT-474 cells were treated with 0.5 μM, 2 μM, or 5 μM of 17AAG (a positive control) or 0.5 μM, 2 μM, or 5 μM of a compound of the invention overnight in DMEM medium. After treatment, each cytoplasmic sample was prepared from 1×10^6 cells by incubation of cell lysis buffer (#9803, Cell Signaling Technology) on ice for 10 minutes. The resulting supernatant used as the cytosol fractions was dissolved with sample buffer for SDS-PAGE and run on a SDS-PAGE gel, blotted onto a nitrocellulose membrane by using semi-dry transfer. Non-specific binding to nitrocellulose is blocked with 5% skim milk in TBS with 0.5% Tween at room temperature for 1 hour, then probed with anti-Her2/ErB2 mAb (rabbit IgG, #2242, Cell Signaling) and anti-Tubulin (T9026, Sigma) as housekeeping control protein. HRP-conjugated goat anti-rabbit IgG (H+L) and HRP-conjugated horse anti-mouse IgG (H+L) were used as secondary Ab (#7074, #7076, Cell Signaling) and LumiGLO reagent, 20× Peroxide (#7003, Cell Signaling) is used for visualization.
BT-474 cells were treated with 0.5 μM, 2 μM, or 5 μM of 17AAG (a positive control) or 0.5 μM, 2 μM, or 5 μM of a compound of the invention overnight in DMEM medium. After treatment, each cytoplasmic sample was prepared from 1×10^6 cells by incubation of cell lysis buffer (#9803, Cell Signaling Technology) on ice for 10 minutes. […]

Compound	Degradation of Her2 (Western blot)
C=CCNC1=C2C[C@@H](C)C[C@H](OC)[C@H](O)[C@@H](C)/C=C(\C)[C@H](OC(N)=O)[C@@H](OC)/C=C\C=C(/C)C(=O)NC(=CC1=O)C2=O [Compound 17AAG, 17-allylamino-17-demethoxygeldanamycin]	partial degradation

system: Her2; test: Her2 degradation in BT-474 cells, in-cell western (ICW), Method 2; type: cell-based, human; settings: Table 3; read-out: EC50 range for Her2 degradation
Protocol: Human BT474 (HTB-20), SK-BR-3 (HTB-30) and MCF-7 breast carcinoma cells (HTB-22) from American Type Culture Collection, VA, USA were grown in Dulbecco's modified Eagle's medium with 4 mM L-glutamine and antibiotics (100 IU/ml penicillin and 100 μg/ml streptomycine; GibcoBRL). To obtain exponential cell growth, cells were trypsinized, counted and seeded at a cell density of 0.5×10^6 cells/ml regularly, every 3 days. All experiments were performed on day 1 after cell passage.
BT-474 cells were plated in the interior 60 wells of a 96 well black clear bottom plate (20,000 cells/well) in DMEM medium, with DMEM media in the surrounding 36 wells, and incubated at 37° C. with 5% CO2 overnight. On the second day, concentration response curve source plates were produced (10 point, 3-fold dilution of compounds in DMSO) followed by a 1:30 dilution in an intermediate dilution plate containing DMEM. Compound was transferred from the intermediate plate to the cell plate at a dilution of 1:10. The cells were incubated at 37° C. with 5% CO2 for 24 hours.
Cells were fixed in 4% phosphate buffered paraformaldehyde for 30 minutes at room temperature and then permeabilized by washing five times with 0.1% Triton X-100 in PBS for 5 minutes at room temperature on a shaker. Cells were blocked with Odyssey Blocking Buffer (LI-COR, #927-40000) on a shaker at room temperature for 1.5 hours followed by incubation with Her2 antibody (CST, #2165) diluted 1:400 in blocking buffer overnight on a shaker at 4° C. Cells were washed five times with 0.1% Tween-20 in PBS for 5 minutes at room temperature on a shaker and incubated with fluorescently labeled secondary antibody (LI-COR, #926-32211) diluted 1:1000 in blocking buffer, and DRAQ5 nuclear stain (Biostatus Limited, #DRAQ5) diluted 1:10,000, at room temperature on a shaker for 1 hour. Cells were washed 5 times with 0.1% Tween-20 in PBS for 5 minutes at room temperature on a shaker and imaged on a LI-COR Odyssey imaging station. The raw data was normalized to DRAQ5 and the Her2 EC50 were calculated using XLfit.

Compound	EC50 [nM]
CC(C)c1cc(-c2nnc(-c3cccnc3)n2-c2ccccc2)c(O)cc1O [Compound 15, 4-isopropyl-6-(4-phenyl-5-(pyridin-3-yl)-4H-1,2,4-triazol-3-yl)benzene-1,3-diol]	< 200
CC(C)c1cc(-c2nnc(-c3cccnc3)n2-c2ccc(CN3CCN(C)CC3)cc2)c(O)cc1O [Compound 16, 4-isopropyl-6-(4-(4-((4-methylpiperazin-1-yl)methyl)phenyl)-5-(pyridin-3-yl)-4H-1,2,4-triazol-3-yl)benzene-1,3-diol]	18
CC(C)c1cc(-c2nnc(-c3cccnc3)n2-c2ccc(N3CCOCC3)cc2)c(O)cc1O [Compound 17, 4-isopropyl-6-(4-(4-morpholinophenyl)-5-(pyridin-3-yl)-4H-1,2,4-triazol-3-yl)benzene-1,3-diol]	38
COc1cc(O)c(-c2nnc(-c3cccnc3)n2-c2ccc(CN3CCOCC3)cc2Cl)cc1C(C)C [Compound 18, 2-(4-(2-chloro-4-(morpholinomethyl)phenyl)-5-(pyridin-3-yl)-4H-1,2,4-triazol-3-yl)-4-isopropyl-5-methoxyphenol]	5000
CCN1CCN(Cc2ccc(-n3c(-c4cccnc4)nnc3-c3cc(C(C)C)c(O)cc3O)c(Cl)c2)CC1 [Compound 19, 4-(4-(2-chloro-4-((4-ethylpiperazin-1-yl)methyl)phenyl)-5-(pyridin-3-yl)-4H-1,2,4-triazol-3-yl)-6-isopropylbenzene-1,3-diol]	52
COc1cc(O)c(-c2nnc(-c3cccnc3)n2-c2ccc(CN3CCN(C)CC3)cc2)cc1C(C)C [Compound 20, 4-isopropyl-5-methoxy-2-(4-(4-((4-methylpiperazin-1-yl)methyl)phenyl)-5-(pyridin-3-yl)-4H-1,2,4-triazol-3-yl)phenol]	2090
CC(C)c1cc(-c2ccc(-c3cccnc3)n2-c2ccc(N3CCOCC3)cc2)c(O)cc1O [Compound 21, 4-isopropyl-6-(1-(4-morpholinophenyl)-5-(pyridin-3-yl)-1H-pyrrol-2-yl)benzene-1,3-diol]	40
COc1ccc(-c2[nH]nc(-c3cc(C(C)C)c(O)cc3O)c2-c2ccc(OC)cc2)cc1 [Compound 22, 4-(4,5-bis(4-methoxyphenyl)-1H-pyrazol-3-yl)-6-isopropylbenzene-1,3-diol]	> 200
COc1ccc(-c2cnc(-c3cc(C(C)C)c(O)cc3O)n2-c2ccc(N3CCOCC3)nc2)cc1 [Compound 23, 4-isopropyl-6-(5-(4-methoxyphenyl)-1-(6-morpholinopyridin-3-yl)-1H-imidazol-2-yl)benzene-1,3-diol]	< 200
COc1ccc(-c2cnc(-c3cc(C(C)C)c(O)cc3O)n2-c2ccc(CN3CCN(C)CC3)cc2)cc1 [Compound 24, 4-isopropyl-6-(5-(4-methoxyphenyl)-1-(4-((4-methylpiperazin-1-yl)methyl)phenyl)-1H-imidazol-2-yl)benzene-1,3-diol]	< 200
